Key:
XPC in HCT116 cells = assay: XPC chromatin binding and ubiquitination after UV irradiation (immunoblot of chromatin-bound extracts); assay type: cell-based, human; conditions: HCT116, lentiviral shRNA 48 hours
Experimental: XPC ubiquitination was determined in HCT116 cells following UV irradiation. HCT116 cells were infected with lentiviral shCul4a or control FUGW for 48 hours, UV irradiated at 10 J/m^2 and harvested at 0 hr, 0.5 hr, 1 hr, and 2 hr post-UV. The chromatin-bound extracts were prepared and subjected to immunoblotting.

[1] = test system: UV-induced CPDs and 6-4PPs in primary MEFs; assay: GGR ELISA assay of CPD and 6-4PP removal in MEFs; assay type: cell-based, mouse
[2] = test system: primary Cul4a f/f and Cul4a−/− MEF cells; assay: Western blotting of DDB2, p21 and XPC steady-state protein levels in MEFs after lentiviral shRNA; assay type: cell-based, mouse; conditions: Western blot
Experimental: (§1) MEFs were isolated from embryonic day (E) 13.5 wild-type or Cul4a knockout embryos. shRNAs for murine Cul4b and Pcid2 as well as scrambled controls were subcloned into the FUGW lentiviral vector and expressed under the U6 promoter as described in Example 1. Recombinant shCul4b and shPcid2 lentiviruses were generated for infection of primary Cu/4a^f/f and Cul4a^−/− MEF cells. shRNA-containing FUGW lentivirus were added onto Cu/4a^f/f and Cul4a^−/− MEFs every 12 hours for 36 hours. The cells were harvested 48 hours post-infection, and Western blotting was performed on MEF extracts using antibodies against CUL4A (C-19, Santa Cruz Biotechnology), CUL-4B, DDB2 (Cell Signaling Technology, Danvers, Mass.), p21 (Santa Cruz Biotechnology), XPC, histone H3, and β-actin (Sigma, St. Louis, Mo.).

Cul4a−/− MEFs = assay: BrdU incorporation and cell viability of Cul4a−/− MEFs after Cul4b silencing; assay type: cell-based, mouse; conditions: silencing of Cul4b in Cul4a−/− MEFs
Excerpt: FIG. 3A is a bar graph depicting the percentage of control (f/f-4a) and Cul4a knockout (ko-4a) MEFs infected with a lentivirus encoding GFP and either short hairpin (sh)-4b or scrambled (scm)-4b, at the indicated time point, as determined by FACS. FIG. 3B is a bar graph depicting BrdU incorporation into the MEFs described in FIG. 3A, as determined by counting BrdU^+ cells in microscopic fields.
(§2) Short hairpin (sh) RNAs for gene targeting were as follows: murine sh-Cul4b was 5′-[…]-3′ (SEQ ID NO: 9); murine sh-Pcid2-1 was 5′-[…]-3′ (SEQ ID NO: 10); murine sh-Pcid2-2 was 5′-[…]-3′ (SEQ ID NO: 11); murine sh-p21 was 5′-[…]-3′ (SEQ ID NO: 12); scrambled sh-Cul4b was 5′-[…]-3′ (SEQ ID NO: 13); and human sh-Cul4a was 5′-GAAGCTGGTCATCAAGAAC-3′ (SEQ ID NO: 14). shRNAs were subcloned into the FUGW lentiviral vector and expressed under the U6 promoter (Sui and Shi, Methods Mol. Biol., 309: 205-218 (2005)). Recombinant lentiviruses were generated for infection of MEFs or HCT116 cells.

mouse CUL4B = assay: Western blotting of MEF extracts after lentiviral shRNA infection (knockdown efficiency); assay type: cell-based; conditions: early passage (P3) primary MEFs, harvested 48 hours post-infection
Excerpt: as §2, §1

HCT116 cells = assay: CPD repair (NER activity) in UV-irradiated HCT116 cells infected with adenovirus; assay type: cell-based, human; conditions: HCT116, 10 J/m^2 UV-C, 0-24 hr
Experimental: The GGR ELISA assay of CPD and 6-4PP removal was performed as previously described (Chen et al., 2006) in primary Cul4a^−/− (ko-4-a scm-4b), Cu/4b^k/d (f/f-4a sh-4b), and control Cu/4a^f/f (f/f-4a scm-4-b) MEFs (FIG. 7B, ko, knockout; k/d, knockdown; scm, scramble). Briefly, exponentially growing MEF cells were irradiated with 10 J/m^2 UV-C (254 nm) and either harvested immediately (0 hr) or allowed to repair for the duration indicated in FIG. 7B. Genomic DNA was isolated and quantified via liquid scintillation and fluorometric measurements of Hoechst-stained DNA. Denatured genomic DNA was fixed to each well of protamine sulfate-coated 96-well plates and sequentially incubated with monoclonal antibody specific for 6-4PPs (64M-2, 1:5000) or CPDs (1:5000), biotin-F(ab′)2 fragment of anti-mouse IgG (H+L) (1:2000, Zymed) and peroxidase-Streptavidin (1:10,000, Zymed) for 30 min at 37° C. The wells were washed with PBS-Tween and 0.1 M citrate-phosphate buffer and incubated with the substrate solution (0.1 M citrate-phosphate buffer, 0.1 mg/mL tetramethylbenzidine [TMB], 0.03% H2O2) at room temperature for 30 min. […] A450 was determined using a plate reader (Molecular Devices).
HCT116 cells were infected with a control adenovirus or an adenovirus comprising a gene encoding a DN-CUL4 (SEQ ID NO: 18). […] The rate of NER activity was then calculated as the rate of CPD repair as a function of time.

Molecule: shCul4a: human short hairpin RNA targeting Cul4a, 5′-GAAGCTGGTCATCAAGAAC-3′ (SEQ ID NO: 14), in FUGW lentiviral vector (listed as Homo sapiens)
- association of XPC with chromatin (XPC in HCT116 cells; UV 10 J/m^2): increased
- XPC ubiquitination on chromatin post-UV (XPC in HCT116 cells; UV 10 J/m^2, 0-2 hr post-UV): dramatic inhibition

Molecule: shCul4b: murine short hairpin RNA targeting Cul4b, 5′-GTAGTAACGAGAGAGAAGACT-3′ (SEQ ID NO: 9), in FUGW lentiviral vector (listed as Mus musculus)
- effect on GGR efficiency (CPD and 6-4PP removal) ([1]; Cul4b knockdown in Cul4a f/f MEFs, 10 J/m^2 UV-C): no discernable effect
- effect on XPC accumulation ([2]; Cul4b knockdown): marginal effect
- effect on p21 protein accumulation ([2]; Cul4b silencing by RNAi): little effect
- effect on DDB2 levels ([2]; lentiviral shRNA): only a marginal effect
- BrdU incorporation (Cul4a−/− MEFs): dramatic reduction
- cell viability (Cul4a−/− MEFs): loss of cell viability
- reduction of mouse CUL4B protein (mouse CUL4B): over 93%

Molecule: sh-p21: murine short hairpin RNA targeting p21, 5′-GAGAACGGTGGAACTTTGACTT-3′ (SEQ ID NO: 12), lentiviral (expressed or natural sequence; listed as Mus musculus)
- reduction of NER activity in CPD removal compared to Cul4a−/− MEFs ([1]; p21 knockdown (or p21 deletion) in Cul4a−/− MEFs, 10 J/m^2 UV, 24-hour repair assay): 8-11%

B1: DN-CUL4: dominant negative CUL4 fragment (SEQ ID NO: 18) expressed from an adenovirus (protein, listed as Homo sapiens)
chain: MADEAPRKGSFSALVGRTNGLTKPAALAAAPAKPGGAGGSKKLVIKNFRDRPRLPDNYTQDTWRKLHEAVRAVQSSTSIRYNLEELYQAVENLCSHKVSPMLYKQLRQACEDHVQAQILPFREDSLDSVLFLKKINTCWQDHCRQMIMIRSIFLFLDRTYVLQNSTLPSIWDMGLELFRTHIISDKMVQSKTIDGILLLIERERSGEAVDRSLLRSLLGMLSDLQVYKDSFELKFLEETNCLYAAEGQRLMQEREVPEYLNHVSKRLEEEGDRVITYLDHSTQKPLIACVEKQLL
modifications: DN-CUL4A (M1-L295)
- CPD repair compared to control adenovirus cells (HCT116 cells): occurred earlier and was more complete
